According to patent publication US4590270A, “2,4-diamino-[4-piperidinyl]pyrimidines useful as antibacterial agents, antimalarial agents, antitumors agents” (Hoffmann-La Roche Inc., priority 1983, dated 1986):
Values after ≈ are worked out from the molar mass of the structure shown. Like-named read-outs stand apart in the source and are kept apart here.

Key:
[1] = target: dihydrofolate reductase from E. coli (Escherichia coli, UniProt P0ABQ4); assay: inhibition of dihydrofolate reductase from E. coli; format: biochemical
[2] = tested on: Bacteroides fragilis strains; assay: in vitro minimum inhibitory concentration against Bacteroides fragilis strains; format: cell-based
Experimental: (§1) In the case of in vitro experiments an minimum inhibitory concentration of 0.1-1.6 μg/ml has been determined for compound A against Bacteroides fragilis strains. […] In comparison to this, values of 79 and 45 μg/l, respectively, were determined for the known pyrimethamine.

[3] = tested on: P. falciparum; assay: in vitro activity against malaria pathogen P. falciparum; format: cell-based; conditions: Plasmodium falciparum
Experimental: as §1

[4] = P. falciparum strain 13, read-out: ID50 (the source's name)
[5] = P. falciparum strain T9, read-out: ID50 (the source's name)

`COc1cc(OC)cc(N2[C@@H]3CC[C@H]2C[C@H](c2cnc(N)nc2N)C3)c1` [compound A, exo-2,4-diamino-5-[8-(3,5-dimethoxyphenyl)-8-azabicyclo[3.2.1]oct-3-yl]pyrimidine] showed an IC50 [1] of 3.3 nM, an MIC [2] of 0.1 to 1.6 µg/mL (≈ 0.281 to 4.5 µM) and an IC50 [3, 4] of 0.0009 µg/mL (≈ 0.00253 µM). For the same molecule, the IC50 [3, 5] was 0.0014 µg/mL (≈ 0.00394 µM).

`CCc1nc(N)nc(N)c1-c1ccc(Cl)cc1` [pyrimethamine, reference compound] gave an IC50 [3, 4] of 0.045 µg/mL (≈ 0.181 µM) and an IC50 [3, 5] of 0.079 µg/mL (≈ 0.318 µM).
